The values below come from ChEMBL document CHEMBL1201862, “PubChem BioAssay data set” (2004).

What all share (assay): NCI anticancer screen, dose series, 48 h
Experiment [1] deals with EKVX.
The test system of experiment [2] is HOP-62.
The test system of experiment [3] is CAKI-1.
In experiment [4] the test system is HCC 2998.
Experiment [5] has as its system SK-MEL-28.
In experiment [6] the test system is LOX IMVI.
The test system of experiment [7] is SK-MEL-5.
Experiment [8] has as its system NCI-H522.
Experiment [9] relates to HOP-92.
Experiment [10] has as its system COLO 205.
Experiment [11] has as its system K562.
Experiment [12] relates to UO-31.
Experiment [13] deals with A549.
The test system of experiment [14] is IGROV-1.
Experiment [15] deals with HCT-15.
Experiment [16] deals with RPMI-8226.
Experiment [17] has as its system NCI-H226.
The subject of experiment [18] is TK-10.

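Cells were grown in 96-well plates and exposed to each compound for 48 hours at five concentrations; endpoints were interpolated linearly between bracketing concentrations, or set to the highest concentration if not reached. GI50 is the concentration that inhibits growth by half.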 Active and inactive are the calls of the source. Rule as the data show it: active = GI50 up to about 1.1 µM and inactive = higher.

For `c1ccc(CCCC2Sc3cccc4cccc(c34)S2)cc1`, the GI50 in [1] was > 100 µM (inactive); in experiment [2], > 100 µM (inactive); in experiment [3], > 100 µM (inactive); in experiment [4], 88.7 µM (inactive); in experiment [5], > 100 µM (inactive); in experiment [6], > 100 µM (inactive). In addition, the GI50 in experiment [7] was 78.3 µM (inactive); in experiment [8] it was 92.7 µM (inactive); in experiment [9], > 100 µM (inactive); in experiment [10] it was > 100 µM (inactive); in [11] it was > 100 µM (inactive); in experiment [12], > 100 µM (inactive). The GI50 in experiment [13] was > 100 µM (inactive); in experiment [14], > 100 µM (inactive); in [15], over 100 µM; in experiment [16] it was 52.7 µM (inactive); in experiment [17], 88.3 µM (inactive); in experiment [18], > 100 µM (inactive).

For `N#C/C(=C\c1ccc(O)c(O)c1)C(N)=S` [TYRPHOSTIN 47], the GI50 was > 100 µM (inactive) in [1]; > 100 µM (inactive) in [2]; > 100 µM (inactive) in experiment [3]; > 73.5 µM (inactive) in experiment [4]; > 84.7 µM (inactive) in experiment [5]; > 88.9 µM (inactive) in experiment [6]. The GI50 was 71.1 µM (inactive) in experiment [7]; 16.2 µM (inactive) in experiment [8]; > 58.3 µM (inactive) in experiment [9]; 56 µM (inactive) in experiment [10]; 22.5 µM (inactive) in [11]; 98.9 µM (inactive) in experiment [12]. The GI50 in experiment [13] was > 100 µM (inactive); in [14], > 100 µM (inactive); in experiment [15], 53.5 µM; in experiment [16] it was > 49.2 µM (inactive); in experiment [17], > 100 µM (inactive); in experiment [18], > 100 µM (inactive).

In the case of `Cc1ccc(-c2c(N)[n+]([O-])c3ccccc3[n+]2[O-])cc1`, the GI50 in experiment [1] was 23.4 µM (inactive); in experiment [2], 17.1 µM (inactive); in experiment [3], 3.81 µM (inactive); in experiment [4], 15.8 µM (inactive); in experiment [5], 6.52 µM (inactive); in experiment [6], 11 µM (inactive). Further, the GI50 was 11.4 µM (inactive) in experiment [7]; 1.55 µM (inactive) in [8]; > 100 µM (inactive) in experiment [9]; 15.2 µM (inactive) in experiment [10]; 15 µM (inactive) in [11]; 16.1 µM (inactive) in experiment [12]. Also, the GI50 is 23.3 µM (inactive) in experiment [13]; 14.9 µM (inactive) in experiment [14]; 3.42 µM in experiment [15]; 21.4 µM (inactive) in experiment [16]; 17.9 µM (inactive) in [17]; 18.4 µM (inactive) in [18].

With `COc1ccc2c(CN3CCCCC3CO)cc3cc(OC)c(OC)cc3c2c1` (stereo unspecified), the GI50 is 6.41 µM (inactive) in experiment [1]; 6.43 µM (inactive) in experiment [2]; 7.59 µM (inactive) in experiment [4]; 6.32 µM (inactive) in experiment [5]; 3.32 µM (inactive) in experiment [6]; 7.5 µM (inactive) in experiment [7]. In addition, the GI50 in experiment [8] is 2.52 µM (inactive); in experiment [9] it was 2.1 µM (inactive); in experiment [10] it was 2.58 µM (inactive); in [11] it was 2.59 µM (inactive); in experiment [12] it was 2.87 µM (inactive); in experiment [13] it was 3.97 µM (inactive). The GI50 is 13.2 µM (inactive) in experiment [14]; 4.38 µM in experiment [15]; 3.48 µM (inactive) in experiment [16]; 4.32 µM (inactive) in experiment [17]; 4.7 µM (inactive) in [18].

For `O=[N+]([O-])C1C2C=CC(C2)[C@H]1c1ccccc1Cl` (stereo partly specified), the GI50 in experiment [1] was > 100 µM (inactive); in experiment [2] it was > 10 µM (inactive); in experiment [3], > 10 µM (inactive); in experiment [4], > 100 µM (inactive); in experiment [5] it was > 68.7 µM (inactive); in experiment [6], > 100 µM (inactive). The GI50 is 53.5 µM (inactive) in experiment [7]; 23.8 µM (inactive) in experiment [8]; 24 µM (inactive) in experiment [9]; > 100 µM (inactive) in [10]; 59.4 µM (inactive) in [11]; > 54 µM (inactive) in [12]. Moreover, the GI50 was > 84.5 µM (inactive) in [13]; > 31.6 µM (inactive) in [14]; over 96.6 µM in experiment [15]; > 69.8 µM (inactive) in [16]; 15.8 µM (inactive) in experiment [17]; > 100 µM (inactive) in experiment [18].

For the molecule `Cc1cccc(C)c1N1C(=O)C(=O)C(c2nc3ccccc3s2)/C(=N/NC(=O)NN)C1=O` (stereo unspecified), the GI50 in experiment [1], in experiment [2], in [3], in experiment [4], in experiment [5] and in experiment [7] was > 100 µM (inactive) throughout. For the same molecule, the GI50 in experiment [8], in experiment [9], in experiment [10], in experiment [12], in experiment [13] and in [14] was > 100 µM (inactive) in each case. In addition, the GI50 in experiment [15] is over 100 µM; in experiment [17] it was > 100 µM (inactive); in [18], > 100 µM (inactive).

In the case of `Cc1cc(=O)n2c3c(c4c(cc13)c(CO)cc(=O)n4C)OC2`, the GI50 in [1] was 64.4 µM (inactive); in experiment [2] it was 13 µM (inactive); in experiment [3], 30.7 µM (inactive); in [4] it was 14.8 µM (inactive); in experiment [5], 18.8 µM (inactive); in experiment [6], 6.85 µM (inactive). For the same molecule, the GI50 in [7] is 20.1 µM (inactive); in experiment [8] it was 4.94 µM (inactive); in experiment [9], 24.4 µM (inactive); in experiment [10] it was 16.5 µM (inactive); in experiment [11], 5.56 µM (inactive); in experiment [12] it was 7.69 µM (inactive). Besides, the GI50 in experiment [13] was 36.1 µM (inactive); in [14], 34.8 µM (inactive); in [16], 32.1 µM (inactive); in [17] it was 5.22 µM (inactive); in experiment [18], 11.8 µM (inactive).

For `Nc1ccc2ncc(Nc3ccc(Cl)c(Cl)c3)nc2c1`, the GI50 in [1] was 27.2 µM (inactive); in experiment [2], 42.3 µM (inactive); in experiment [3] it was 23.4 µM (inactive); in experiment [4], 17.6 µM (inactive); in experiment [5] it was 26.5 µM (inactive); in experiment [6] it was 21.6 µM (inactive). The GI50 in experiment [7] is 17.5 µM (inactive); in [8], 17.9 µM (inactive); in experiment [9] it was 13.6 µM (inactive); in experiment [10], 16.7 µM (inactive); in experiment [11], 18.1 µM (inactive); in experiment [12], 19.7 µM (inactive). The GI50 in experiment [13] is 26.3 µM (inactive); in experiment [15], 34 µM; in [16], 24.5 µM (inactive); in experiment [17], 20.8 µM (inactive); in experiment [18] it was 70.6 µM (inactive).

As to `CC1(c2ccccc2)CC(c2ccccc2)=NO1` (stereo unspecified), the GI50 in experiment [1], in [2], in experiment [3], in experiment [4], in [5] and in [7] was > 100 µM (inactive) throughout. For the same molecule, the GI50 in experiment [8], in [9], in [10], in experiment [11], in experiment [12] and in experiment [13] was > 100 µM (inactive) each time. The GI50 in experiment [14] was > 100 µM (inactive); in experiment [15], over 100 µM; in experiment [16], > 100 µM (inactive); in [17] it was > 100 µM (inactive); in experiment [18], > 100 µM (inactive).

Turning to `CCOC(=O)C1(c2ccccc2)CCC(=O)CC1`, the GI50 in [1], in [2], in experiment [3], in experiment [4], in experiment [5] and in [6] was > 100 µM (inactive) in each case. Besides, the GI50 in experiment [7], in experiment [8], in experiment [9], in [10], in experiment [11] and in [12] was > 100 µM (inactive) in each case. Further, the GI50 in experiment [13] was > 100 µM (inactive); in experiment [14], > 100 µM (inactive); in [15] it was over 100 µM; in [17] it was > 100 µM (inactive); in [18], > 100 µM (inactive).

On to `CC(=O)c1c(O)ccc2c1CC(CC=O)O2` (stereo unspecified), for which the GI50 was > 100 µM (inactive) in [2]; > 100 µM (inactive) in experiment [3]; > 100 µM (inactive) in experiment [4]; > 100 µM (inactive) in experiment [5]; 19.9 µM (inactive) in [6]; 79.8 µM (inactive) in [7]. Moreover, the GI50 in [8] was 60.5 µM (inactive); in [9], 34.3 µM (inactive); in experiment [10] it was > 100 µM (inactive); in experiment [11] it was > 100 µM (inactive); in experiment [12], 63.2 µM (inactive); in experiment [13], > 100 µM (inactive). Further, the GI50 was > 100 µM (inactive) in [14]; 52.6 µM in experiment [15]; 45.3 µM (inactive) in [16]; > 100 µM (inactive) in [17]; > 100 µM (inactive) in experiment [18].

Take `C/C(=N\NC(=O)c1ccccc1O)c1c(O)cc(C)oc1=O`: the GI50 is 29.9 µM (inactive) in experiment [1]; 98.6 µM (inactive) in experiment [2]; 92 µM (inactive) in experiment [4]; > 100 µM (inactive) in [5]; 76 µM (inactive) in [6]; 43.8 µM (inactive) in experiment [7]. The GI50 in experiment [8] is 32.7 µM (inactive); in [9], 10.4 µM (inactive); in experiment [10] it was > 100 µM (inactive); in experiment [11], 72.6 µM (inactive); in [12], 31.5 µM (inactive); in experiment [13], 33 µM (inactive). In addition, the GI50 was 34.2 µM (inactive) in experiment [14]; 91.2 µM in experiment [15]; 50.4 µM (inactive) in experiment [16]; 34.3 µM (inactive) in [17]; > 100 µM (inactive) in [18].
